The subject of assay [1] is U-87 MG. The experiment in a line: Cytotoxicity against human U87MG cells assessed as reduction in cell viability by WST1 assay. In general terms: Tetrazolium assays rely on reduction of a dye to a coloured formazan, in cell work by metabolically active cells.
Assay [2] concerns U-87 MG. The experiment in a line: Inhibition of colony formation in human U87MG cells.
Assay [3] relates to U-87 MG. Conditions: Homo sapiens; U-87MG ATCC.
The subject of assay [4] is HCT-116. Kind of assay: Cytotoxicity against human HCT116 cells assessed as reduction in cell viability by WST1 assay.
In assay [5] the test system is HCT-116. The experiment in a line: Inhibition of colony formation in human HCT116 cells.

By IC50 is commonly meant the concentration needed to halve the response being measured.

Consider `CNC(=O)c1ccccc1Nc1nc(Nc2ccc(CN)cc2)nnc1Cl`, for which the half-inhibitory concentration (IC50) turned out to be 2400 nM with U-87 MG [1], 14 nM with U-87 MG [2], 1800 nM with HCT-116 [4] and 1100 nM in the assay on HCT-116 [5]. Besides, in the assay with U-87 MG [3], the inhibition entry is “Dose-dependent effect”.
On to `CNC(=O)c1ccccc1Nc1nc(Nc2ccc(N3CCOCC3)cc2)nnc1Cl`, for which the IC50 in the assay with U-87 MG [1] was 10100 nM; in the assay with U-87 MG [2], 700 nM; in the assay on HCT-116 [4], 500 nM; with HCT-116 [5], 1700 nM. In addition, the inhibition entry in the assay on U-87 MG [3] was “Dose-dependent effect”.
As to `CNC(=O)c1ccccc1Nc1nc(Nc2ccc(N3CCOCC3)cc2OC)nnc1Cl`, the IC50 was determined as 13300 nM in the assay on U-87 MG [1], 1500 nM with U-87 MG [2], 190 nM in the assay with HCT-116 [4] and 1000 nM in the assay with HCT-116 [5]. Besides, the inhibition result with U-87 MG [3] is “Dose-dependent effect”.
For `COc1cc(Nc2nnc(Cl)c(Nc3cccc(NS(C)(=O)=O)c3)n2)cc(OC)c1OC`, the IC50 with U-87 MG [1] was 12500 nM; in the assay on U-87 MG [2], 70 nM; in the assay with HCT-116 [4] it was 14800 nM; with HCT-116 [5], 60 nM. Besides, the inhibition result in the assay with U-87 MG [3] is “Dose-dependent effect”.
Take `CNC(=O)c1ccccc1Nc1nc(Nc2cc(C)c(Cl)cc2OC)nnc1Cl`: the IC50 in the assay on U-87 MG [1] was 9200 nM; with U-87 MG [2] it was 500 nM; in the assay on HCT-116 [4] it was 5800 nM; in the assay with HCT-116 [5], 4500 nM. For the same compound, the inhibition result in the assay with U-87 MG [3] was “Dose-dependent effect”.
Regarding `CNC(=O)c1ccccc1Nc1nc(Nc2ccc(N3CCOCC3)cc2OC)ncc1Cl`, the IC50 in the assay with U-87 MG [1] is 1300 nM; in the assay on U-87 MG [2] it was 170 nM; in the assay on HCT-116 [4] it was 390 nM; in the assay with HCT-116 [5], 270 nM.
With `CNC(=O)c1ccccc1Nc1nc(Nc2cc(OC)c(OC)c(OC)c2)nnc1Cl`, the IC50 with U-87 MG [1] is 17000 nM; in the assay with U-87 MG [2], 1700 nM; in the assay on HCT-116 [4] it was 14900 nM; in the assay with HCT-116 [5] it was 2100 nM. In the assay on U-87 MG [3], the inhibition entry is “Dose-dependent effect”.

The values are drawn from ChEMBL document CHEMBL4007480, “Synthesis of novel 1,2,4-triazine scaffold as FAK inhibitors with antitumor activity” (Bioorg Med Chem Lett, 2017).
